In PMC9535023, “Inhibition of phospholipase D1 induces immunogenic cell death and potentiates cancer immunotherapy in colorectal cancer” (Experimental & Molecular Medicine, 2022):
Read-outs that look alike come from different tables or passages of the source.

How the values were obtained:
[1] = system: DLD1 cells; assay: Cell viability (MTT); type: cell-based
Protocol: Cell viability was measured by MTT (3-(4,5-dimethylthiazol2-yl)-2,5-diphenyltetrazolium bromide, Sigma-Aldrich). Cells (5 × 10^3 cells/well) were seeded in a 96-well plate. […] After treatment, the cells were incubated with 0.5 mg/mL MTT in the media for 2 h and lysed with DMSO. Absorbance was measured at 570 nm using a VersaMax ELISA microplate reader (Molecular Devices).

[2] = system: DLD1 cells; assay: Cell cycle analysis (BrdU/7-AAD flow cytometry), DLD1; type: cell-based
Protocol: For cell cycle analysis, the cells were treated with Α3373 or 5-FU. The cells were labeled with 10 μΜ bromodeoxyuridine (BrdU) for 2 h. Subsequently, the cells were stained with 7-aminoactinomycin D (7-AAD, Invitrogen) and a fluorescein isothiocyanate (FITC)-conjugated anti-BrdU antibody (Invitrogen). Apoptotic cells were detected using an Annexin V-FITC Apoptosis Detection Kit (BD Biosciences). The cells were analyzed using BD FACSAria III (BD Biosciences), and data analysis was performed using FlowJo v10.0 (BD Biosciences).

[3] = In vivo pharmacokinetics; set-up: species or system mouse; AUCinf: unit not given here; conditions: for half-life: read-out: t1/2 (terminal half-life) (converted)
Protocol: Supplementary Table 4. Plasma pharmacokinetics of A3373
The pharmacokinetic parameters were estimated with non-compartmental analysis using
PKSolver, based on the concentration- time profiles of A3373 in the plasma samples following
single IV (5 mg/kg) and PO (10 mg/kg) dose in mice (n=3). Abbreviations: T1 /2, elimination
half life; Tmax, time to peak concentration; AUC, area under the concentration–time curve;
MRT, mean residence ti me; Vz, the volume in the terminal state; CL, clearance; Vss, steady-
state volume of distribution; F, absolute bioavailability. […]
Male ICR mice (8 weeks old, 30~35 g) were accli mated to the testing facility in a temperature
and humidity controlled condition for approximately a week prior to the study. 1 mg/mL of
A3373 solution in dimethylacetamide/tween 80/saline (10/10/80 vol%) was dosed orally (10
mg/kg in a volume of 10 mL/kg) or by tail vein injection (5 mg/kg in a volume of 5 mL/kg) to
the animals. About 40 μL of blood samples were collected in BD Microtainer plasma s eparator
tubes at selected times through the saphenous vein over 24 hour s post-dosing. Blood samples
were centrifuged at 6,000 x g for 5 minutes to separat e plasma and stored in a freezer until
analyzed. Protein precipitation was conduct ed on 15 μL aliquot of plas ma samples with 3
volumes of acetonitrile containing glipizide as analytical internal standard. After centrifugation,
the supernatant was analyzed by Agilent 6460 QQQ LC-MS/MS system in a negative MRM
mode. Briefly, chromatography was performed on a Phenomenex Kinetex C18 column (2.1 ×
50 mm, 2.6 μm) with a linear gradient of the mobil e phases 10 mM aqu eous ammonium acetate
and acetonitrile. […]

[4] = system: CRC cells; assay: Measurement of extracellular ATP; type: cell-based
Protocol: For the quantitative determination of extracellular ATP, the cells were treated with Α3373. Extracellular release of ATP was assessed using the ENLITEN ATP Assay kit (Promega) according to the manufacturer’s instructions. For the HMGB1 level measurement, the supernatants of the cells were prepared by removing insoluble materials by centrifugation at 10,000 × g for 3 min at 4 °C. The levels of HMGB1 were measured using an HMGB1 detection kit (Chondrex) according to the manufacturer’s instructions.

[5] = system: MC38-GFP-Luc cells; assay: Colon cancer orthotopic model (MC38-GFP-Luc in cecum); type: in vivo, mouse
Protocol: GFP-luciferase expressing MC38 murine CRC (MC38-GFP-Luc) cells were cocultured with bone marrow-derived macrophages (BMDMs). After 48 h, the macrophages were isolated and incubated with naïve T cells from the splenocytes of wild-type mice to generate CD8^+ T cells. The activated CD8^+ T cells were sorted using BD FACSAria III, added to wells containing MC38-GFP-Luc cells and titrated to effector cells (E) and the target cell (T) ratio (E/T ratio). Four hours later, CD8^+ T-cell-mediated killing of MC38-GFP-Luc cancer cells in each well was monitored using a luciferase-based bioluminescence imaging system.
Supplementary materials and methods […]
A colon cancer orthotropic model was established using 6- weeks-old C57BL/6 male mice.
Mice were administered a single IP injection of 2,2,2-Tribromoethanol (Avertin, Sigma - aldrich), an an esthetic . T he abdomen was shaved and the surgi cal site was draped in a sterile […]
manner. The incision was extended to 2–3 cm, and the cecum was exposed. 2 × 10^5 MC38-GFP-Luciferas e cells were suspended in 50 µL PBS and injected into the cecum. Seven days after cell injection, 10 mg/kg A3373 was orally administered to the mice daily for 4 weeks. […]
All mice wer e housed at 2 5°C under a 12:12 hou rs light/dark cycle. All animal procedu res were performed in accordance with the institutional guidelines for animal research and were approved by the Institutional Animal Care and Use Committee of Yonsei University (IACUC- […]
In a colon cancer orthotropic model, tumor-infiltrating lymphocytes (TILs) were isolated from the tumor tissue 30 days after cell injection. Tumors wer e en zymatically di ssociated in RPMI media containing 10% FBS, 200 mg/mL collagenase IV (Sigma- Aldrich), 20 mg/mL hyaluronidase (Sigma-Al drich), and 20 mg/mL DNase I (Sigma Aldrich) at 37 ℃ with stirring.
After 20 minutes of incubation, 0.1 M EDTA was added to prevent clumping. Cells were filtered through a 40 µm nylon mesh, single-cell suspensions were counted and used for the experiments. Finally, the TILs were resuspended in PBS containing 1% FBS. For the distribution of immune cells, anti- mouse CD45 microbeads were us ed according to the manufacturer’s instructions (Miltenyi Biotech). Isolated tumor cells were cultured for one passage to change the immunocompromised phenotype and assessed using flow cytometry.
Splenocytes were isolat ed from mouse spleens, seeded at 5× 10^6 cells, and stimulated with 10 µg/mL MC38 GFP-Luciferase cell lysates. For intracellular cytokine staining, cells were […]

[6] = male, ICR, mouse, plasma, IV 5 mg/kg, mice
[7] = male, ICR, mouse, plasma, PO 10 mg/kg, mice
[8] = mesenteric lymph nodes, vs vehicle

In the case of O=C(Nc1cc(C(F)(F)F)cc(C(F)(F)F)c1)c1cc2cc(F)ccc2[nH]1 [Compound A3373], the “potency in suppressing viability, comparison” value ([1]; DLD1 cells) is reported as “higher potency in suppressing viability than that of VU0155069”, the “viability of DLD1 cells, in words” value ([1]; dose- and time-dependent) is reported as “significantly inhibited the viability” and the “cell cycle / proliferation of CRC cells, in words” value [2] is reported as “significantly decreased the proliferation of CRC cells”. The “t1/2 (terminal half-life)” value ([3]; IV 5 mg/kg, mice, 5 mg/kg) was 3.2 h, the AUCinf ([3]; PO 10 mg/kg, male ICR mice) was 13,647.5 ± 1506.9 and the Tmax ([3]; PO 10 mg/kg, male ICR mice) was 0.5 h. It also gave a Vd ([3]; male, ICR, mouse, plasma, iv, 5 mg/kg, IV 5 mg/kg, mice, read-out: Vss (steady state volume)) of 2.1 ± 0.1 L/kg, a Vd ([3]; male, ICR, mouse, plasma, iv, 5 mg/kg, IV 5 mg/kg, mice, read-out: Vz) of 3.7 L/kg and a half-life ([3]; male, ICR, mouse, plasma, iv, 5 mg/kg, IV 5 mg/kg, mice) of ~3.2 h. It also gave a half-life ([3]; male, ICR, mouse, plasma, po, 10 mg/kg, PO 10 mg/kg, mice) of 3.8 h, an AUC(0-inf) [3, 6] of 6320 ng·h/mL and an AUC(0-t) [3, 6] of 6300 ng·h/mL. It also gave an MRT [3, 6] of 2.6 h, a clearance ([3]; male, ICR, mouse, plasma, IV 5 mg/kg, mice, read-out: CL (clearance) (converted)) of 13.3 mL/min/kg and a bioavailability ([3]; male, ICR, mouse, plasma, PO 10 mg/kg vs IV 5 mg/kg, mice, read-out: F (oral bioavailability)) of 108%. It also gave an AUC(0-inf) [3, 7] of 13600 ng·h/mL, an AUC(0-t) [3, 7] of 13500 ng·h/mL and an MRT [3, 7] of 5.6 h. For the same compound, the Tmax ([3]; male, ICR, mouse, plasma, PO 10 mg/kg, mice, read-out: tmax) was 0.5 h, the Cmax ([3]; mouse, plasma, PO 10 mg/kg, male ICR mice) was 2630 ± 183 ng/mL and the “extracellular ATP, in words” value [4] was “significantly increased extracellular ATP”. For the same compound, the “active caspase-3 and Ki67 in tumor tissues (IHC)” value ([5]; 10 mg/kg every day for 4 weeks) was “increased levels of active caspase-3 and reduced levels of Ki67”, the “mortality and tumor weight” value ([5]; 10 mg/kg every day for 4 weeks, vs vehicle) was “significant reduction in mortality and tumor weight” and the “CD8+ T-cell-mediated killing, luciferase activity” value ([5]; MC38-GFP-Luc cells derived from treated mice, vs vehicle) was “significantly lower luciferase activity”. The “population of GFP+CD11b+ BMDMs, in words” value ([5]; coculture with MC38-GFP-Luc cells isolated from tumors) was “significantly increased the population of GFP^+CD11b^+ BMDMs”, the “CD107a+ granzyme B+ and FasL+IFNγ+ CD8+ T cells” value ([5]; mesenteric lymph nodes restimulated with MC38-GFP-Luc lysates, vs vehicle) was “increased population of CD107a^+ granzyme B^+ and FasL^+IFNγ^+ CD8^+ T cells” and the “Foxp3+ cells in the CD4+ TCRβ+ gate” value [5, 8] was “decreased population of Foxp3^+ cells”. For the same compound, the “IFNγ+ and IL17a+ in CD4+ T cells” value [5, 8] was “significantly increased the population of IFNγ^+ and IL17a^+ in CD4^+ T cells”.
